In this assay the target is TBK1 (Homo sapiens (Human), UniProt Q9UHD2). Kind of assay: TBK1 low ATP kinase assay (in vitro assay 1). The following applies: in vitro assay 1, read-out: TBK1 low ATP kinase assay IC50. It counts as biochemical.

pIC50: −log10 of the molar value.

Broadly, the pIC50 is −log10 of the IC50, conventionally taken in molar units.

Sequence of TBK1 (Q9UHD2 whole entry): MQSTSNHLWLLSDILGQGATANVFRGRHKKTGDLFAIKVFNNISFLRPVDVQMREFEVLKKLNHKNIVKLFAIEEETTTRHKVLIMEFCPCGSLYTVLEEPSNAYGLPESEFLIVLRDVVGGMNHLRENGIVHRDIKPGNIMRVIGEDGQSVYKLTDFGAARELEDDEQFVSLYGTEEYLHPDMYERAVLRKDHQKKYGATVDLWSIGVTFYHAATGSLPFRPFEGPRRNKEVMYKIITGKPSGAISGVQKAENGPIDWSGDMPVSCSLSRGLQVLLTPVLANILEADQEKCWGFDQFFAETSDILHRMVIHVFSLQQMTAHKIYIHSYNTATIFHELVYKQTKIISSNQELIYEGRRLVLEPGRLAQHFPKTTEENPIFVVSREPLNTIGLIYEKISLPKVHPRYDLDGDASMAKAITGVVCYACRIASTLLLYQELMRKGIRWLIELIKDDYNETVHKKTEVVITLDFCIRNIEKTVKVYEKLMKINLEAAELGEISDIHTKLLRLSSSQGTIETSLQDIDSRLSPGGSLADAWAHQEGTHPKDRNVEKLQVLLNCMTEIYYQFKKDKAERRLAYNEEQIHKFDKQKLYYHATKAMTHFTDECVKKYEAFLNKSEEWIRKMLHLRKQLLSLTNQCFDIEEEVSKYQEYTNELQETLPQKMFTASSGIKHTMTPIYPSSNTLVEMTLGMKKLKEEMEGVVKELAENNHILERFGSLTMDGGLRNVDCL

Take `COCc1cc(-c2ccc3nc(Nc4cc(C(C)N5CCN(C(=O)C6CC6)CC5)ccn4)[nH]c3c2)ncn1` (single isomer, unassigned) [Example 84.03, cyclopropyl(4-{(1R or 1S)-1-[2-({6-[6-(methoxymethyl)pyrimidin-4-yl]-1H-benzimidazol-2-yl}amino)pyridin-4-yl]ethyl}piperazin-1-yl)methanone]: the pIC50 is 8.77. Take `O=C(CC1CC1)N1CCN(Cc2ccnc(Nc3nc4ccc(-c5cncnc5)cc4[nH]3)c2)CC1` [Example 45.01.02, 2-cyclopropyl-1-{4-[(2-{[6-(pyrimidin-5-yl)-1H-benzimidazol-2-yl]amino}pyridin-4-yl)methyl]piperazin-1-yl}ethanone]: the pIC50 is 6.40.

As for `Cc1cc(-c2ccc3nc(Nc4cc(C(C)N5CCN(C(=O)C6CC6)CC5)ccn4)[nH]c3c2)ncn1` (single isomer, unassigned) [Example 30.03.03.B, cyclopropyl{4-[(1S or 1R)-1-(2-{[6-(6-methylpyrimidin-4-yl)-1H-benzimidazol-2-yl]amino}pyridin-4-yl)ethyl]piperazin-1-yl}methanone], the pIC50 was 7.85. `O=C(C1CC1)N1CCN(Cc2ccnc(Nc3nc4ccc(-c5ccncn5)cc4[nH]3)c2)CC1` [Example 23.01.02, cyclopropyl{4-[(2-{[6-(pyrimidin-4-yl)-1H-benzimidazol-2-yl]amino}pyridin-4-yl)methyl]piperazin-1-yl}methanone]: the pIC50 was 7.66. The result for `COc1ncccc1-c1ccc2nc(Nc3cc(CN4CCN(C(=O)CC(F)(F)F)CC4)ccn3)[nH]c2c1` [Example 15.01, 3,3,3-trifluoro-1-{4-[(2-{[6-(2-methoxypyridin-3-yl)-1H-benzimidazol-2-yl]amino}pyridin-4-yl)methyl]piperazin-1-yl}propan-1-one] reads 6.47; that for `Cc1cncnc1-c1ccc2nc(Nc3cc(CN4CCN(C(=O)C5CC5)CC4)ccn3)[nH]c2c1` [Example 184.03, cyclopropyl{4-[(2-{[6-(5-methylpyrimidin-4-yl)-1H-benzimidazol-2-yl]amino}pyridin-4-yl)methyl]piperazin-1-yl}methanone], 6.67; that for `Cc1noc(-c2ccc3nc(Nc4cc(CN5CCN(c6ccc(F)c(F)c6)CC5)ccn4)[nH]c3c2)n1` [Example 101.21, N-(4-{[4-(3,4-difluorophenyl)piperazin-1-yl]methyl}pyridin-2-yl)-6-(3-methyl-1,2,4-oxadiazol-5-yl)-1H-benzimidazol-2-amine], less than 4.24.

Turning to `Cc1cc(-c2ccc3nc(Nc4cc(CN5CCN(C(=O)C6CCC6)CC5)ccn4)[nH]c3c2)ccn1` [Example 01.05, cyclobutyl{4-[(2-{[6-(2-methylpyridin-4-yl)-1H-benzimidazol-2-yl]amino}pyridin-4-yl)methyl]piperazin-1-yl}methanone], the pIC50 was 7.15. As for `CC(c1ccnc(Nc2nc3ccc(-c4cnn(CC5CCC5)c4)c(F)c3[nH]2)c1)N1CCN(C(=O)C2CC2)CC1` (single isomer, unassigned) [Example 171.03, (4-{(1R or 1S)-1-[2-({6-[1-(cyclobutylmethyl)-1H-pyrazol-4-yl]-7-fluoro-1H-benzimidazol-2-yl}amino)pyridin-4-yl]ethyl}piperazin-1-yl)(cyclopropyl)methanone], the pIC50 is 8.55. The result for `CCN(C)c1cc(-c2ccc3nc(Nc4cc(CN5CCN(C(=O)C6CC6)CC5)ccn4)[nH]c3c2)ncn1` [Example 148.03, cyclopropyl[4-({2-[(6-{6-[ethyl(methyl)amino]pyrimidin-4-yl}-1H-benzimidazol-2-yl)amino]pyridin-4-yl}methyl)piperazin-1-yl]methanone] reads 8.32; that for `Cc1cc(-c2ccc3nc(Nc4cc(CN5CCN(C(=O)C6CCC6)CC5)ccn4)[nH]c3c2)ncn1` [Example 30.01.02, cyclobutyl{4-[(2-{[6-(6-methylpyrimidin-4-yl)-1H-benzimidazol-2-yl]amino}pyridin-4-yl)methyl]piperazin-1-yl}methanone], 7.73. As to `CC(c1ccnc(Nc2nc3ccc(-c4cnn(CC(F)F)c4)cc3[nH]2)c1)N1CCN(C(=O)C2CC2)CC1` (single isomer, unassigned) [Example 87.02, cyclopropyl(4-{(1R or 1S)-1-[2-({6-[1-(2,2-difluoroethyl)-1H-pyrazol-4-yl]-1H-benzimidazol-2-yl}amino)pyridin-4-yl]ethyl}piperazin-1-yl)methanone], the pIC50 was 8.70.

With `COc1cncnc1-c1ccc2nc(Nc3cc(CN4CCN(S(=O)(=O)C5CC5)CC4)ccn3)[nH]c2c1` [Example 35.01.12, N-(4-{[4-(cyclopropylsulfonyl)piperazin-1-yl]methyl}pyridin-2-yl)-6-(5-methoxypyrimidin-4-yl)-1H-benzimidazol-2-amine], the pIC50 is 7.49. With `COc1cnccc1-c1ccc2nc(Nc3cc(CN4CCN(C(=O)CC(F)(F)F)CC4)ccn3)[nH]c2c1` [Example 04.02, 3,3,3-trifluoro-1-{4-[(2-{[6-(3-methoxypyridin-4-yl)-1H-benzimidazol-2-yl]amino}pyridin-4-yl)methyl]piperazin-1-yl}propan-1-one], the pIC50 was 7.79.

In the case of `O=C(CC(F)(F)F)N1CCN(Cc2ccnc(Nc3nc4ccc(-c5ccnc(C(F)(F)F)n5)cc4[nH]3)c2)CC1` [Example 27.04, 3,3,3-trifluoro-1-(4-{[2-({6-[2-(trifluoromethyl)pyrimidin-4-yl]-1H-benzimidazol-2-yl}amino)pyridin-4-yl]methyl}piperazin-1-yl)propan-1-one], the pIC50 is 6.71. As for `Cc1noc(-c2ccc3nc(Nc4cc(CN5CCN(C(=O)C6CCC6)C[C@H]5C)ccn4)[nH]c3c2)n1` [Example 16.03.05, cyclobutyl{(3R)-3-methyl-4-[(2-{[6-(3-methyl-1,2,4-oxadiazol-5-yl)-1H-benzimidazol-2-yl]amino}pyridin-4-yl)methyl]piperazin-1-yl}methanone], the pIC50 was 7.07. As for `O=C(C1CCC1)N1CCN(Cc2ccnc(Nc3nc4ccc(-c5ccn(CC6CC6)c(=O)c5)cc4[nH]3)c2)CC1` [Example 44.03, 4-{2-[(4-{[4-(cyclobutylcarbonyl)piperazin-1-yl]methyl}pyridin-2-yl)amino]-1H-benzimidazol-6-yl}-1-(cyclopropylmethyl)pyridin-2(1H)-one], the pIC50 is 7.07. The result for `Cc1cc(-c2ccc3nc(Nc4cc(C(C)N5CCN(C(=O)C6(C(F)(F)F)CC6)CC5)ccn4)[nH]c3c2F)ncn1` (single isomer, unassigned) [Example 172.04, {4-[(1R or 1S)-1-(2-{[7-fluoro-6-(6-methylpyrimidin-4-yl)-1H-benzimidazol-2-yl]amino}pyridin-4-yl)ethyl]piperazin-1-yl}[1-(trifluoromethyl)cyclopropyl]methanone] reads 7.68; that for `CC(c1ccnc(Nc2nc3ccc(-c4ccnn4C(C)C)cc3[nH]2)c1)N1CCN(C(=O)OC(C)(C)C)CC1` (single isomer, unassigned) [Example 72.01, tert-butyl 4-{(1R or 1S)-1-[2-({6-[1-(propan-2-yl)-1H-pyrazol-5-yl]-1H-benzimidazol-2-yl}amino)pyridin-4-yl]ethyl}piperazine-1-carboxylate], 6.10; that for `COc1cncnc1-c1ccc2nc(Nc3cc(CN4CCN(C(=O)CC(F)(F)F)CC4)ccn3)[nH]c2c1` [Example 35.01.01, 3,3,3-trifluoro-1-{4-[(2-{[6-(5-methoxypyrimidin-4-yl)-1H-benzimidazol-2-yl]amino}pyridin-4-yl)methyl]piperazin-1-yl}propan-1-one], 7.72.

With “1-(4-{(1R or 1S)-1-[2-({6-[1-(cyclopentylmethyl)-1H-pyrazol-4-yl]-1H-benzimidazol-2-yl}amino)pyridin-4-yl]ethyl}piperazin-1-yl)-3,3,3-trifluoropropan-1-one [Example 71.02]”, the negative-log IC50 (pIC50) was 8.15. As for `COc1cc(-c2ccc3nc(Nc4cc(CN5CCN(C(=O)C6CC6)CC5)ccn4)[nH]c3c2)c(F)cn1` [Example 03.01, cyclopropyl{4-[(2-{[6-(5-fluoro-2-methoxypyridin-4-yl)-1H-benzimidazol-2-yl]amino}pyridin-4-yl)methyl]piperazin-1-yl}methanone], the pIC50 is 6.70. Take `CC(c1ccnc(Nc2nc3ccc(-c4cc(OCC(F)(F)F)ncn4)cc3[nH]2)c1)N1CCN(C(=O)C2CC2(F)F)CC1` (single isomer, unassigned) [Example 119.05, ((1RS)-2,2-difluorocyclopropyl)(4-{(1R or 1S)-1-[2-({6-[6-(2,2,2-trifluoroethoxy)pyrimidin-4-yl]-1H-benzimidazol-2-yl}amino)pyridin-4-yl]ethyl}piperazin-1-yl)methanone]: the pIC50 is 8.20. The result for `O=C(C1CC1)N1CCN(Cc2ccnc(Nc3nc4ccc(-c5cc(N6CCCCC6)ncn5)cc4[nH]3)c2)CC1` [Example 145.03, cyclopropyl(4-{[2-({6-[6-(piperidin-1-yl)pyrimidin-4-yl]-1H-benzimidazol-2-yl}amino)pyridin-4-yl]methyl}piperazin-1-yl)methanone] reads 8.68.

In the case of `CC(c1ccnc(Nc2nc3ccc(-c4cc(C(F)(F)F)nn4C)cc3[nH]2)c1)N1CCN(C(=O)CC(F)(F)F)CC1` (single isomer, unassigned) [Example 88.02, 3,3,3-trifluoro-1-(4-{(1R or 1S)-1-[2-({6-[1-methyl-3-(trifluoromethyl)-1H-pyrazol-5-yl]-1H-benzimidazol-2-yl}amino)pyridin-4-yl]ethyl}piperazin-1-yl)propan-1-one], the negative logarithm of the IC50 (pIC50) is 6.07. Regarding `CCOc1nccc(-c2ccc3nc(Nc4cc(CN5CCN(C(=O)C6CC6)CC5)ccn4)[nH]c3c2)n1` [Example 26.01.02, cyclopropyl{4-[(2-{[6-(2-ethoxypyrimidin-4-yl)-1H-benzimidazol-2-yl]amino}pyridin-4-yl)methyl]piperazin-1-yl}methanone], the pIC50 is 8.07.

In the case of `Cc1cc(-c2ccc3nc(Nc4cc(C(C)N5CCN(C(=O)OC(C)(C)C)CC5)ccn4)[nH]c3c2Cl)ncn1` (single isomer, unassigned) [Example 98.01, tert-butyl 4-[(1R or 1S)-1-(2-{[7-chloro-6-(6-methylpyrimidin-4-yl)-1H-benzimidazol-2-yl]amino}pyridin-4-yl)ethyl]piperazine-1-carboxylate], the pIC50 was 7.00.

Source of the values: US10894784B2, “Heteroarylbenzimidazole compounds” (BAYER PHARMA AKTIENGESELLSCHAFT, priority 2015, dated 2021).
